Experimental data reported in US6737383B1, “Herbicidal oxadiazolidines” (priority 1999, dated 2004).

What was measured:
cocklebur = assay: Test B pre/postemergence cocklebur; assay type: in vivo, Xanthium strumarium
In short: (§1)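 Test chemicals in a non-phytotoxic solvent mixture with surfactant were sprayed preemergence onto planted seeds and postemergence onto plants 2 to 18 cm tall (1- to 4-leaf stage). After twelve to sixteen days in a greenhouse, injury was visually rated against untreated controls from 0 (no effect) to 10 (complete control).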

corn = assay: Test B pre/postemergence corn; assay type: in vivo, Zea mays
In short: as §1

crabgrass = assay: Test B pre/postemergence crabgrass; assay type: in vivo, Digitaria sanguinalis
In short: as §1

duck salad = assay: Test B flood test duck salad; assay type: in vivo, Heteranthera limosa; conditions: Rate 125 g/ha; Postemergence section (flood test species); scale 0 to 10, 0 no effect, 10 complete control
In short: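 Flood test on plants grown to the 2-leaf stage; treated plants kept in greenhouse twelve to sixteen days, then visually rated against controls on a 0 (no effect) to 10 (complete control) scale.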

pigweed = assay: Test B pre/postemergence pigweed; assay type: in vivo, Amaranthus retroflexus
In short: as §1

soybean = assay: Test B pre/postemergence soybean; assay type: in vivo, Glycine max
In short: as §1

wild oat = assay: Test B pre/postemergence wild oat; assay type: in vivo, Avena fatua
In short: as §1

rape = assay: Test B pre/postemergence rape; assay type: in vivo, Brassica napus
In short: as §1

sugar beet = assay: Test B pre/postemergence sugar beet; assay type: in vivo, Beta vulgaris
In short: as §1

bedstraw = assay: Test B pre/postemergence bedstraw; assay type: in vivo, Galium aparine
In short: as §1

velvetleaf = assay: Test B pre/postemergence velvetleaf; assay type: in vivo, Abutilon theophrasti
In short: as §1

morningglory = assay: Test B pre/postemergence morningglory; assay type: in vivo, Ipomoea hederacea
In short: as §1

surinam grass = assay: Test B pre/postemergence surinam grass; assay type: in vivo, Brachiaria decumbens
In short: as §1

[1] = Postemergence, Rate 62 g/ha, scale 0 to 10, 0 is no effect, 10 is complete control
[2] = Postemergence, Rate 250 g/ha, scale 0 to 10, 0 no effect, 10 complete control
[3] = Preemergence, Rate 62 g/ha, scale 0 to 10, 0 is no effect, 10 is complete control
[4] = Preemergence, Rate 125 g/ha, scale 0 to 10 (0 no effect, 10 complete control)
[5] = Preemergence, Rate 250 g/ha, scale of 0 to 10 where 0 is no effect and 10 is complete control
[6] = Preemergence, Rate 500 g/ha, scale 0 (no effect) to 10 (complete control)
[7] = Rate 125 g/ha, Postemergence, scale 0 to 10, 0 no effect, 10 complete control
[8] = Rate 500 g/ha, Postemergence, 0 to 10 scale (0 no effect, 10 complete control)
[9] = Postemergence, Rate 125 g/ha, scale of 0 to 10 where 0 is no effect and 10 is complete control
[10] = Preemergence, Rate 62 g/ha, scale of 0 to 10 where 0 is no effect and 10 is complete control
[11] = Preemergence, Rate 125 g/ha, 0 is no effect, 10 is complete control
[12] = Preemergence, Rate 250 g/ha, scale 0 to 10, 0 is no effect, 10 is complete control
[13] = Preemergence, Rate 500 g/ha, scale 0 to 10 (0 no effect, 10 complete control)
[14] = Rate 62 g/ha, Postemergence, scale of 0 to 10 where 0 is no effect and 10 is complete control
[15] = Rate 250 g/ha, Postemergence, scale 0 to 10, 0 is no effect, 10 is complete control
[16] = Rate 500 g/ha, Postemergence, scale 0 to 10

Cc1ccc(N(C(=O)n2oc(=O)n(-c3ccccc3C)c2=O)C(C)C)cc1 [Compound 40]
Cocklebur plant response rating (cocklebur; [1]): 0 | Cocklebur plant response rating (cocklebur; [2]): 0 | Plant response rating, Cocklebur (cocklebur; [3]): 0 | Plant response rating, Cocklebur (cocklebur; [4]): 0 | Plant response rating, Cocklebur (cocklebur; [5]): 0 | Cocklebur plant response rating (cocklebur; [6]): 0 | Cocklebur plant response rating (cocklebur; [7]): 0 | Cocklebur plant response rating (cocklebur; [8]): 0 | Corn plant response rating (corn; [1]): 0 | Corn plant response rating (corn; [2]): 0 | Plant response rating, Corn (corn; [3]): 0 | Plant response rating, Corn (corn; [4]): 0 | Plant response rating, Corn (corn; [5]): 0 | Corn plant response rating (corn; [6]): 0 | Corn plant response rating (corn; [7]): 0 | Corn plant response rating (corn; [8]): 0 | Crabgrass plant response rating (crabgrass; [1]): 0 | Crabgrass plant response rating (crabgrass; [2]): 6 | Plant response rating, Crabgrass (crabgrass; [3]): 2 | Plant response rating, Crabgrass (crabgrass; [4]): 4 | Plant response rating, Crabgrass (crabgrass; [5]): 7 | Crabgrass plant response rating (crabgrass; [6]): 10 | Crabgrass plant response rating (crabgrass; [7]): 1 | Crabgrass plant response rating (crabgrass; [8]): 7 | Ducksalad plant response rating (duck salad): 0 | Redroot pigweed plant response rating (pigweed; [1]): 0 | Redroot pigweed plant response rating (pigweed; [2]): 2 | Plant response rating, Redroot pigweed (pigweed; [3]): 0 | Plant response rating, Redroot pigweed (pigweed; [4]): 1 | Plant response rating, Redroot pigweed (pigweed; [5]): 4 | Redroot pigweed plant response rating (pigweed; [6]): 6 | Redroot pigweed plant response rating (pigweed; [7]): 1 | Soybean plant response rating (soybean; [1]): 3 | Soybean plant response rating (soybean; [2]): 4 | Plant response rating, Soybean (soybean; [3]): 0 | Plant response rating, Soybean (soybean; [4]): 0 | Plant response rating, Soybean (soybean; [5]): 0 | Soybean plant response rating (soybean; [6]): 0 | Soybean plant response rating (soybean; [7]): 3 | Wild oats plant response rating (wild oat; [1]): 0 | Wild oats plant response rating (wild oat; [2]): 0 | Plant response rating, Wild oats (wild oat; [4]): 0 | Plant response rating, Wild oats (wild oat; [5]): 0 | Wild oats plant response rating (wild oat; [6]): 5 | Wild oats plant response rating (wild oat; [7]): 0 | Rape plant response rating (rape; [1]): 0 | Rape plant response rating (rape; [2]): 0 | Plant response rating, Rape (rape; [3]): 0 | Plant response rating, Rape (rape; [4]): 0 | Plant response rating, Rape (rape; [5]): 0 | Rape plant response rating (rape; [6]): 0 | Rape plant response rating (rape; [7]): 0 | Rape plant response rating (rape; [8]): 0 | Sugarbeets plant response rating (sugar beet; [1]): 0 | Sugarbeets plant response rating (sugar beet; [2]): 2 | Plant response rating, Sugarbeets (sugar beet; [3]): 0 | Plant response rating, Sugarbeets (sugar beet; [4]): 0 | Plant response rating, Sugarbeets (sugar beet; [5]): 0 | Sugarbeets plant response rating (sugar beet; [6]): 6 | Sugarbeets plant response rating (sugar beet; [7]): 0 | Bedstraw plant response rating (bedstraw; [1]): 0 | Plant response rating, Bedstraw (bedstraw; [3]): 0 | Plant response rating, Bedstraw (bedstraw; [4]): 0 | Plant response rating, Bedstraw (bedstraw; [5]): 0 | Bedstraw plant response rating (bedstraw; [6]): 0 | Bedstraw plant response rating (bedstraw; [8]): 2 | Velvetleaf plant response rating (velvetleaf; [1]): 0 | Velvetleaf plant response rating (velvetleaf; [2]): 0 | Plant response rating, Velvetleaf (velvetleaf; [3]): 0 | Plant response rating, Velvetleaf (velvetleaf; [4]): 0 | Plant response rating, Velvetleaf (velvetleaf; [5]): 0 | Velvetleaf plant response rating (velvetleaf; [6]): 0 | Velvetleaf plant response rating (velvetleaf; [7]): 0 | Morningglory plant response rating (morningglory; [1]): 3 | Morningglory plant response rating (morningglory; [2]): 6 | Plant response rating, Morningglory (morningglory; [3]): 0 | Plant response rating, Morningglory (morningglory; [4]): 0 | Plant response rating, Morningglory (morningglory; [5]): 0 | Morningglory plant response rating (morningglory; [6]): 0 | Morningglory plant response rating (morningglory; [7]): 6 | Morningglory plant response rating (morningglory; [8]): 7 | B. signalgrass plant response rating (surinam grass; [1]): 0 | B. signalgrass plant response rating (surinam grass; [2]): 0 | Plant response rating, B. signalgrass (surinam grass; [3]): 0 | Plant response rating, B. signalgrass (surinam grass; [4]): 0 | Plant response rating, B. signalgrass (surinam grass; [5]): 5 | B. signalgrass plant response rating (surinam grass; [6]): 7 | B. signalgrass plant response rating (surinam grass; [7]): 0 | B. signalgrass plant response rating (surinam grass; [8]): 0

CC1CCCCC1n1c(=O)on(C(=O)N(c2ccccc2)C(C)C)c1=O (stereo not shown) [Compound 162]
Cocklebur plant response rating (cocklebur; [9]): 0 | Cocklebur plant response rating (cocklebur; [10]): 0 | Cocklebur plant response rating (0 to 10 scale) (cocklebur; [11]): 0 | Cocklebur plant response rating (cocklebur; [12]): 0 | Cocklebur plant response rating (cocklebur; [13]): 0 | Cocklebur plant response rating (cocklebur; [14]): 0 | Plant response rating, Cocklebur (cocklebur; [15]): 0 | Cocklebur plant response rating (cocklebur; [16]): 2 | Corn plant response rating (corn; [9]): 0 | Corn plant response rating (corn; [10]): 0 | Corn plant response rating (0 to 10 scale) (corn; [11]): 0 | Corn plant response rating (corn; [12]): 0 | Corn plant response rating (corn; [13]): 0 | Corn plant response rating (corn; [14]): 0 | Plant response rating, Corn (corn; [15]): 0 | Corn plant response rating (corn; [16]): 0 | Crabgrass plant response rating (crabgrass; [9]): 2 | Crabgrass plant response rating (crabgrass; [10]): 6 | Crabgrass plant response rating (0 to 10 scale) (crabgrass; [11]): 8 | Crabgrass plant response rating (crabgrass; [12]): 9 | Crabgrass plant response rating (crabgrass; [13]): 10 | Crabgrass plant response rating (crabgrass; [14]): 0 | Plant response rating, Crabgrass (crabgrass; [15]): 6 | Crabgrass plant response rating (crabgrass; [16]): 8 | Redroot pigweed plant response rating (pigweed; [9]): 0 | Redroot pigweed plant response rating (pigweed; [10]): 0 | Redroot pigweed plant response rating (0 to 10 scale) (pigweed; [11]): 0 | Redroot pigweed plant response rating (pigweed; [12]): 0 | Redroot pigweed plant response rating (pigweed; [13]): 7 | Redroot pigweed plant response rating (pigweed; [14]): 0 | Plant response rating, Redroot pigweed (pigweed; [15]): 0 | Redroot pigweed plant response rating (pigweed; [16]): 0 | Soybean plant response rating (soybean; [9]): 4 | Soybean plant response rating (soybean; [10]): 0 | Soybean plant response rating (0 to 10 scale) (soybean; [11]): 0 | Soybean plant response rating (soybean; [12]): 0 | Soybean plant response rating (soybean; [13]): 0 | Soybean plant response rating (soybean; [14]): 3 | Plant response rating, Soybean (soybean; [15]): 4 | Soybean plant response rating (soybean; [16]): 4 | Wild oats plant response rating (wild oat; [10]): 0 | Wild oats plant response rating (0 to 10 scale) (wild oat; [11]): 0 | Wild oats plant response rating (wild oat; [12]): 2 | Wild oats plant response rating (wild oat; [13]): 5 | Plant response rating, Wild oats (wild oat; [15]): 0 | Wild oats plant response rating (wild oat; [16]): 4 | Rape plant response rating (rape; [9]): 0 | Rape plant response rating (rape; [10]): 0 | Rape plant response rating (0 to 10 scale) (rape; [11]): 2 | Rape plant response rating (rape; [12]): 4 | Rape plant response rating (rape; [13]): 9 | Rape plant response rating (rape; [14]): 0 | Plant response rating, Rape (rape; [15]): 0 | Rape plant response rating (rape; [16]): 0 | Sugarbeets plant response rating (sugar beet; [9]): 0 | Sugarbeets plant response rating (sugar beet; [10]): 0 | Sugarbeets plant response rating (0 to 10 scale) (sugar beet; [11]): 0 | Sugarbeets plant response rating (sugar beet; [12]): 0 | Sugarbeets plant response rating (sugar beet; [13]): 0 | Sugarbeets plant response rating (sugar beet; [14]): 0 | Plant response rating, Sugarbeets (sugar beet; [15]): 0 | Sugarbeets plant response rating (sugar beet; [16]): 0 | Bedstraw plant response rating (bedstraw; [9]): 2 | Bedstraw plant response rating (bedstraw; [10]): 0 | Bedstraw plant response rating (0 to 10 scale) (bedstraw; [11]): 0 | Bedstraw plant response rating (bedstraw; [12]): 0 | Bedstraw plant response rating (bedstraw; [13]): 0 | Bedstraw plant response rating (bedstraw; [14]): 0 | Plant response rating, Bedstraw (bedstraw; [15]): 3 | Bedstraw plant response rating (bedstraw; [16]): 6 | Velvetleaf plant response rating (velvetleaf; [10]): 0 | Velvetleaf plant response rating (0 to 10 scale) (velvetleaf; [11]): 0 | Velvetleaf plant response rating (velvetleaf; [12]): 0 | Velvetleaf plant response rating (velvetleaf; [13]): 0 | Plant response rating, Velvetleaf (velvetleaf; [15]): 4 | Velvetleaf plant response rating (velvetleaf; [16]): 4 | Morningglory plant response rating (morningglory; [9]): 6 | Morningglory plant response rating (morningglory; [10]): 0 | Morningglory plant response rating (0 to 10 scale) (morningglory; [11]): 0 | Morningglory plant response rating (morningglory; [12]): 0 | Morningglory plant response rating (morningglory; [13]): 0 | Morningglory plant response rating (morningglory; [14]): 6 | Plant response rating, Morningglory (morningglory; [15]): 10 | Morningglory plant response rating (morningglory; [16]): 10 | B. signalgrass plant response rating (surinam grass; [9]): 0 | B. signalgrass plant response rating (surinam grass; [10]): 0 | B. signalgrass plant response rating (0 to 10 scale) (surinam grass; [11]): 2 | B. signalgrass plant response rating (surinam grass; [12]): 3 | B. signalgrass plant response rating (surinam grass; [13]): 7 | B. signalgrass plant response rating (surinam grass; [14]): 0 | Plant response rating, B. signalgrass (surinam grass; [15]): 0 | B. signalgrass plant response rating (surinam grass; Rate 500 g/ha, Postemergence, scale 0 to 10, 0 no effect, 10 complete control): 4
